{
  "source": "patent US11602529B2",
  "about": "“Use of EZH2 inhibitors for treating cancer” (Epizyme, Inc., priority 2017, dated 2023)",
  "key": {"[1]": {"test_system": "refractory B-cell non-Hodgkin lymphoma and advanced solid tumors, including epithelioid sarcoma", "details": "cited from earlier work"}, "[2]": {"experiment": "In vivo efficacy in animal models"}, "Oral bioavailability": {"experiment": "Oral bioavailability", "details": "in vivo"}, "[3]": {"test_system": "genetically defined cancer cells", "experiment": "Target methyl mark inhibition and killing of cancer cells in vitro", "type": "cell-based"}, "soft tissue sarcoma": {"test_system": "soft tissue sarcoma", "experiment": "Post-treatment biopsy of patients with soft tissue sarcoma (Example 2)"}, "epithelioid sarcoma": {"test_system": "epithelioid sarcoma", "experiment": "PD-L1, CD4 and CD8 staining of pre- and post-dose tissue biopsies of a subject with epithelioid sarcoma"}},
  "data": [
    {"compound": "CCN(c1cc(-c2ccc(CN3CCOCC3)cc2)cc(C(=O)NCc2c(C)cc(C)[nH]c2=O)c1C)C1CCOCC1", "note": "[Compound 44, tazemetostat]", "values": [
      {"measurement": "PD-L1 expression in tumor sample", "setting": "[1]; after 4 weeks of treatment", "value": "modest expression of PD-L1 on immune cells"},
      {"measurement": "histological assessment of on-treatment tumor specimen", "setting": "[1]; not present at baseline nor at disease progression", "value": "strong immune infiltrate"},
      {"measurement": "clinical activity in patients", "setting": "[1]; phase I clinical study", "value": "antitumor activity"},
      {"measurement": "in vivo efficacy following inhibition of target methyl mark", "setting": "[2]", "value": "sustained in vivo efficacy"},
      {"measurement": "oral bioavailability", "setting": "Oral bioavailability", "value": "orally bioavailable"},
      {"measurement": "effect of target methyl mark inhibition on cancer cells", "setting": "[3]", "value": "killing of genetically defined cancer cells in vitro"},
      {"measurement": "cells present in the tumor showing expression of PD-L1", "setting": "soft tissue sarcoma; biopsy after 20 weeks of treatment", "value": "more than 50%"},
      {"measurement": "cells present in the tumor showing expression of PD-L1", "setting": "soft tissue sarcoma; second patient, biopsy after 25 weeks of treatment", "value": "more than 80%"},
      {"measurement": "PD-L1 expression in tumor after treatment", "setting": "epithelioid sarcoma; 800 mg twice daily orally, 25 weeks, post-dose vs pre-dose biopsy", "value": "upregulated PD-L1"},
      {"measurement": "T-cell markers CD4 and CD8 in tumors with upregulated PD-L1", "setting": "epithelioid sarcoma; after treatment", "value": "positive for T-cell markers CD4 and CD8"},
      {"measurement": "CD8+ immune cells, share of overall cellularity", "setting": "epithelioid sarcoma; post-dose sample, 800 mg twice daily orally, 25 weeks (pre-dose about 5%)", "value": "about 30%"},
      {"measurement": "CD4+ histiocytoid cells, cellularity", "setting": "epithelioid sarcoma; post-dose sample, 800 mg twice daily orally, 25 weeks (pre-dose about 20%)", "value": "about 5%"},
      {"measurement": "CD4+ cells, share of overall cellularity", "setting": "epithelioid sarcoma; post-dose sample, 800 mg twice daily orally, 25 weeks (pre-dose also about 2%)", "value": "about 2%"}
    ]}
  ]
}
